Results taken from publication PMC11738990, “A small-molecule TNIK inhibitor targets fibrosis in preclinical and clinical models” (Nature Biotechnology, 2024).
“And” between values parts separate entries of the source, which are not always exact repeats. Equal entries are not always repeated. Where two headings read alike, the source gives them in different places.

Experiments:
C57BL/6 mice = assay: Bleomycin-induced lung fibrosis model, combination with pirfenidone; format: in vivo, mouse; conditions: INS018_055 3mpk BID; 3 mg/kg
Experimental: Mice received bleomycin on day 1 at a dose of 0.66 mg per kg (equivalent to 1 U per kg), in a volume of 50 μl by intratracheal administration, or received saline (sham group). On day 7, dosing with the corresponding compounds was started. The vehicle group (group 1) was treated with 0.5% methylcellulose BID. […] On days 5 and 21, lung function measurement was performed. On day 28, all animals were killed, and blood and tissue samples were collected along with BALF.
Lung function was measured according to the HDB standard protocol. Expiratory time, relaxation time, peak expiratory flow and peak inspiratory flow were collected and used to calculate Penh data.
Lung sections were cut at a thickness of 4 μm, dried in an oven for 1 h and stained with M&T using our standard protocol. Briefly, sections were stained with Weigert’s iron hematoxylin working solution for 10 min, stained in Biebrich scarlet–acid fuchsin solution for 10 min, differentiated in phosphomolybdic–phosphotungstic acid solution for 5 min or until the collagen was not red, transferred to aniline blue solution, stained for 1 min and then dedifferentiated in 1% acetic acid solution. Next, sections were dehydrated and coverslipped for subsequent image analysis. For image analysis of collagen deposition, Masson’s trichrome-stained slides were scanned by using Aperio ScanScope Model CS2 (Leica) at ×200 magnification. Images were then opened with HALO. Using the pen tool, the whole left lung section was selected as an annotation layer. The area occupied by blue collagen fibers was measured using the pen tool. The percentage of fibrosis (positive areas) in the selected annotation was then calculated with the program. Fibrosis was expressed as a percentage per lung section.
Sections (4 μm thick) were placed on slides, and, after overnight drying, paraffin was removed with xylene. Next, sections were placed in a graded ethanol series and immersed in distilled water. After heat-induced citrate antigen (pH 6.0) unmasking, sections were immersed in 3% hydrogen peroxide solution for 5 min. […] Next, secondary antibodies conjugated to HRP were added. For image analysis of fibrosis, stained sections were used and scanned with the Aperio CS2 Scanner machine. Images were then opened with HALO. Using the pen tool, the whole left lung section was selected as an annotation layer. The bronchus was excluded in the annotation layer. The area occupied by collagen fibers was measured using the ‘Area Quantification v2.1.3’ module. The percentage of positive areas in the selected annotation was then calculated using the program.

HK-2 cells = assay: TGF-β-induced α-SMA expression, western blot; format: cell-based, human
Experimental: INS018-055 stock was diluted to eight concentrations in a threefold dilution with DMSO from the final highest concentration at 10 μM. A total of 3.0 × 10^5 HK-2 cells per well were seeded into a six-well plate containing 2.0 ml culture medium at a density of 3.0 × 10^5 cells per well. The cells were cultured overnight at 37 °C. The next day, the complete medium was replaced with K-SFM medium supplemented with 0.025 mg ml^−1 bovine pituitary extract, 2.5 ng ml^−1 EGF and 1% penicillin–streptomycin for starvation. After 24 h of incubation, HK-2 cells were treated with compounds (eight concentrations, threefold dilution) for 30 min before being stimulated with 8 ng ml^−1 TGF-β for an additional 48 h. TGF-β induction was used as the maximum induction positive control. The final DMSO concentration in the assay was 0.1%. Cells were cultured for 48 h at 37 °C. The culture medium was discarded at the end of induction. Cells were washed once using ice-cold DPBS. RIPA buffer was added to lyse the cells for 20 min. Cells were collected, and the supernatant was stored at −80 °C. The total amount of protein in the lysate was determined using the BCA Protein Assay Kit.
For whole-cell lysates, cells were collected and lysed on ice for 20 min with RIPA buffer with protease and phosphatase inhibitors (cOmplete and PhosSTOP, Roche). The protein concentration of the cell lysates was determined using the BCA Protein Assay Kit. After denaturation, whole-cell lysates and cytoplasm and nuclear extraction fractions were loaded onto 4–12% gradient Bis-Tris gels (15 wells) and 4–20% Tris-glycine gels (26 wells), respectively. For western blot detection of target proteins, 15 μg of whole-cell lysates, 5–10 μg of the cytoplasm fraction, 1–2 μg of nuclear matrix and 2–4 μg of the chromatin fraction were loaded into each lane. For western blot detection of histone 3, 0.4–1 μg of the chromatin fraction was loaded. The gels were run for 0.5 h at 80 V before being run at 120 V for another 1 h. When electrophoresis was completed, the gels containing target proteins were transferred onto NC membrane using the iBlot 2 Gel Transfer Device for 13 min at 20 V. All membranes were blocked with 5% BSA in TBST buffer at room temperature for 1 h and then incubated with primary antibodies specific to the indicated targets in TBST buffer containing 5% BSA at 4 °C overnight. After the primary antibody, membranes were washed three times with TBST buffer before incubation with HRP-conjugated secondary antibodies at room temperature for 1 h. Membranes were stripped with Restore Western Blot Stripping Buffer (Thermo Fisher) for GAPDH reference protein detection after exposure for the target proteins. Images of blots were acquired using Image Quant LAS 4000. Integrated intensity of bands from 16-bit blot images was used for quantitation with the software Image Studio Lite. Protein-quantification data of two independent experiments were calculated and analyzed using GraphPad.

CC(C)n1cnc(-c2ccc(F)cc2)c1-c1nc(C(=O)Nc2ccc(N3CCN(C)CC3)cc2)c[nH]1 [INS018_055, 2-[4-(4-fluorophenyl)-1-(prop-2-yl)imidazol-5-yl]-N-[4-(4-methylhexahydropyrazin-1-yl)phenyl]-1H-imidazole-4-carboxamide]
Modified Ashcroft Score (C57BL/6 mice): 5.75 and 4.5 and 3
a-SMA normalized by GAPDH (HK-2 cells; 0.004572 uM): 2.139
a-SMA normalized by GAPDH (HK-2 cells; 0.0411523 uM): 1.835
a-SMA normalized by GAPDH (HK-2 cells; 0.123457 uM): 1.612
a-SMA normalized by GAPDH (HK-2 cells; 0.37037 uM): 1.401
a-SMA normalized by GAPDH (HK-2 cells; 3.33333 uM): 1.182
a-SMA normalized by GAPDH (HK-2 cells; 10 uM): 1.23
IC50 (HK-2 cells; TGF-β 8 ng/ml, 48 h, single experiment, read-out: IC50 for α-SMA inhibition): 0.104 µM
Any TEAE (healthy subjects; MAD BID 7 d 30 mg N=6): 66.7%
Any TEAE (healthy subjects; MAD BID 7 d 60 mg N=6): 100.0%
Any TEAE (healthy subjects; MAD BID 7 d 90 mg N=6): 100.0%
Abdominal distension (healthy subjects; MAD any dose N=18): 5.6%
Anaemia (healthy subjects; MAD any dose N=18): 11.1%
Any TEAE (healthy subjects; MAD any dose N=18): 88.9%
Arthralgia (healthy subjects; MAD any dose N=18): 5.6%
Basophil count increased (healthy subjects; MAD any dose N=18): 5.6%
Blood and lymphatic system disorders (healthy subjects; MAD any dose N=18): 11.1%
Blood bilirubin increased (healthy subjects; MAD any dose N=18): 5.6%
Blood creatine phosphokinase increased (healthy subjects; MAD any dose N=18): 5.6%
Blood fibrinogen decreased (healthy subjects; MAD any dose N=18): 11.1%
Blood pressure decreased (healthy subjects; MAD any dose N=18): 5.6%
Blood pressure increased (healthy subjects; MAD any dose N=18): 5.6%
Cardiac disorders (healthy subjects; MAD any dose N=18): 5.6%
Dizziness (healthy subjects; MAD any dose N=18): 22.2%
Electrolyte imbalance (healthy subjects; MAD any dose N=18): 5.6%
Epistaxis (healthy subjects; MAD any dose N=18): 11.1%
Fecal occult positive (healthy subjects; MAD any dose N=18): 55.6%
Gastrointestinal disorders (healthy subjects; MAD any dose N=18): 22.2%
Haematuria (healthy subjects; MAD any dose N=18): 16.7%
Headache (healthy subjects; MAD any dose N=18): 16.7%
Hepatic enzyme increased (healthy subjects; MAD any dose N=18): 5.6%
Hyperphosphataemia (healthy subjects; MAD any dose N=18): 5.6%
Hypertriglyceridaemia (healthy subjects; MAD any dose N=18): 50.0%
Hyponatraemia (healthy subjects; MAD any dose N=18): 5.6%
Infections and infestations (healthy subjects; MAD any dose N=18): 5.6%
Influenza like illness (healthy subjects; MAD any dose N=18): 27.8%
Investigations (healthy subjects; MAD any dose N=18): 77.8%
Limb discomfort (healthy subjects; MAD any dose N=18): 0.0%
Musculoskeletal and connective tissue disorders (healthy subjects; MAD any dose N=18): 33.3%
Nasal obstruction (healthy subjects; MAD any dose N=18): 5.6%
Nausea (healthy subjects; MAD any dose N=18): 5.6%
Nervous system disorders (healthy subjects; MAD any dose N=18): 38.9%
Pain in extremity (healthy subjects; MAD any dose N=18): 27.8%
Pruritus (healthy subjects; MAD any dose N=18): 5.6%
Pyrexia (healthy subjects; MAD any dose N=18): 11.1%
Rash (healthy subjects; MAD any dose N=18): 16.7%
Renal and urinary disorders (healthy subjects; MAD any dose N=18): 16.7%
Respiratory, thoracic and mediastinal disorders (healthy subjects; MAD any dose N=18): 16.7%
Sinus bradycardia (healthy subjects; MAD any dose N=18): 5.6%
Skin and subcutaneous tissue disorders (healthy subjects; MAD any dose N=18): 22.2%
Total bile acids increased (healthy subjects; MAD any dose N=18): 5.6%
Vomiting (healthy subjects; MAD any dose N=18): 5.6%
White blood cells urine positive (healthy subjects; MAD any dose N=18): 11.1%
Any TEAE (healthy subjects; SAD 30 mg N=6): 83.3%
Any TEAE (healthy subjects; SAD 60 mg N=6): 33.3%
Any TEAE (healthy subjects; SAD 120 mg N=6): 50.0%
Any TEAE (healthy subjects; SAD any dose N=18): 55.6%
Blood glucose increased (healthy subjects; SAD any dose N=18): 0.0%
Blood uric acid increased (healthy subjects; SAD any dose N=18): 5.6%
Body temperature increased (healthy subjects; SAD any dose N=18): 5.6%
Cardiac disorders (healthy subjects; SAD any dose N=18): 11.1%
Fecal occult positive (healthy subjects; SAD any dose N=18): 27.8%
Gastrointestinal disorders (healthy subjects; SAD any dose N=18): 5.6%
Headache (healthy subjects; SAD any dose N=18): 5.6%
Hypertriglyceridaemia (healthy subjects; SAD any dose N=18): 27.8%
Hypotension (healthy subjects; SAD any dose N=18): 5.6%
Investigations (healthy subjects; SAD any dose N=18): 33.3%
Nervous system disorders (healthy subjects; SAD any dose N=18): 5.6%
Sinus bradycardia (healthy subjects; SAD any dose N=18): 11.1%
Vascular disorders (healthy subjects; SAD any dose N=18): 5.6%
White blood cells urine positive (healthy subjects; SAD any dose N=18): 0.0%
Noninfective gingivitis (healthy subjects; in vivo): 5.6%
Upper respiratory tract infection (healthy subjects; in vivo): 5.6%
